Here are results for five compounds from ChEMBL document CHEMBL5338704, “Discovery of novel phenylhydrazone-based oxindole-thiolazoles as potent antibacterial agents toward Pseudomonas aeruginosa” (Eur J Med Chem, 2022).

≈ marks a conversion by molar mass, not a printed value. Calls of active or inactive are those of the source. The calls are words filed in the database; no cut-off is given here.

Series [1] deals with Enterococcus faecalis. Description: Antibacterial activity against Enterococcus faecalis assessed as inhibition of bacterial growth by micro-broth dilution assay. Type of series: functional.
Series [2] concerns Pseudomonas aeruginosa. Description: Antibacterial activity against Pseudomonas aeruginosa ATCC 27853 assessed as inhibition of bacterial growth at 4 times MIC measured upto 14 hrs. Type of series: functional, organism-based.
Series [3] deals with Acinetobacter baumannii. Description: Antibacterial activity against Acinetobacter baumannii assessed as inhibition of bacterial growth by micro-broth dilution assay. In kind it is functional.
In series [4] the test system is Escherichia coli. Description: Antibacterial activity against Escherichia coli assessed as inhibition of bacterial growth by micro-broth dilution assay. In kind it is functional.
The test system of series [5] is Pseudomonas aeruginosa. Description: Antibacterial activity against Pseudomonas aeruginosa ATCC 27853 assessed as inhibition of bacterial growth measured after 6 hrs. Type of series: functional, organism-based.
The subject of series [6] is Escherichia coli. Description: Antibacterial activity against Escherichia coli ATCC 25922 assessed as inhibition of bacterial growth by micro-broth dilution assay. In kind it is functional.
Series [7] concerns Staphylococcus aureus. Description: Antibacterial activity against Staphylococcus aureus ATCC 29213 assessed as inhibition of bacterial growth by micro-broth dilution assay. Type of series: functional.
The subject of series [8] is Pseudomonas aeruginosa. Description: Antibacterial activity against Pseudomonas aeruginosa assessed as inhibition of bacterial growth by micro-broth dilution assay. Type of series: functional.
The subject of series [9] is Pseudomonas aeruginosa. Description: Antibacterial activity against Pseudomonas aeruginosa ATCC 27853 assessed as inhibition of bacterial growth by micro-broth dilution assay. In kind it is functional.
Series [10] deals with Klebsiella pneumoniae. Description: Antibacterial activity against Klebsiella pneumoniae assessed as inhibition of bacterial growth by micro-broth dilution assay. Type of series: functional.
In series [11] the test system is Staphylococcus aureus. Description: Antibacterial activity against Staphylococcus aureus ATCC 25923 assessed as inhibition of bacterial growth by micro-broth dilution assay. In kind it is functional.
Series [12] relates to Staphylococcus aureus. Description: Antibacterial activity against methicillin resistant Staphylococcus aureus assessed as inhibition of bacterial growth by micro-broth dilution assay. In kind it is functional.
The subject of series [13] is Staphylococcus aureus. Description: Antibacterial activity against Staphylococcus aureus assessed as inhibition of bacterial growth by micro-broth dilution assay. In kind it is functional.
Series [14] has as its system Pseudomonas aeruginosa. Description: Antibacterial activity against Pseudomonas aeruginosa assessed as […] inactivation at 0.5 to 8 times MIC by alamar blue staining based analysis. In kind it is functional, organism-based.
The subject of series [15] is DNA. Description: Binding affinity to Pseudomonas aeruginosa DNA assessed as reduction in acridine orange-DNA complex formation by competitive binding assay. Type of series: nucleic-acid assay.
The test system of series [16] is Cell membrane. Description: Induction of inner membrane damage in Pseudomonas aeruginosa incubated for 6 hrs by Calcein AM dye based fluorescence based assay. In kind it is subcellular.
For series [17], the system named is Cell membrane. Description: Induction of outer membrane permeabilization in Pseudomonas aeruginosa assessed as increase in fluorescence intensity at 0.5 to 8 microg/ml by NPN-dye based fluorescence analysis. The settings on record: dose 0.5-8 µg/ml.
The subject of series [18] is Cell membrane. Description: Induction of cell membrane damage in Pseudomonas aeruginosa assessed as increase in protein leakage. In kind it is subcellular.
Series [19] has as its system Cell membrane. Description: Induction of cytoplasmic membrane depolarization in Pseudomonas aeruginosa assessed as increase in fluorescence intensity MIC by DiSC35 dye based fluorescence analysis. In kind it is subcellular.
Series [20] deals with Cell membrane. Description: Induction of inner membrane damage in Pseudomonas aeruginosa assessed as increase in red fluorescence cells at 0.5 to 8 times MIC incubated for 6 hrs by Calcein AM dye based fluorescence based assay. Type of series: subcellular.
Series [21] relates to Pseudomonas aeruginosa. Description: Inhibition of biofilm formation in Pseudomonas aeruginosa at 0.5 to 8 microg/ml by crystal violet staining based analysis. In kind it is functional. The settings on record: dose 0.5-8 µg/ml; at 0.5 to 8 µg/mL.
For series [22], the system named is Pseudomonas aeruginosa. Description: Inhibition of biofilm formation in Pseudomonas aeruginosa assessed as removal of mature biofilm by crystal violet staining based analysis. Type of series: functional, organism-based. The note with it: dose 0.5-8 µg/ml.
The subject of series [23] is Pseudomonas aeruginosa. Description: Inhibition of biofilm formation in Pseudomonas aeruginosa by crystal violet staining based analysis. In kind it is functional, organism-based. The note with it: dose 0.5-8 µg/ml.
The test system of series [24] is Pseudomonas aeruginosa. Description: Antibacterial activity against Pseudomonas aeruginosa assessed as reduction in LDH activity at 8 times MIC. Type of series: functional. On the set-up: scale not given: the % may be the effect or the level left.
The subject of series [25] is Pseudomonas aeruginosa. Description: Potency index, ratio of norfloxacin MIC to test compound MIC for antibacterial activity against Pseudomonas aeruginosa assessed as inhibition of bacterial growth by micro-broth dilution assay. Type of series: functional.
Series [26] deals with Cell membrane. Description: Induction of inner membrane damage in Pseudomonas aeruginosa assessed as decrease in green fluorescence cells at 0.5 to 8 times MIC incubated for 6 hrs by Calcein AM dye based fluorescence based assay. In kind it is subcellular.
The subject of series [27] is DNA. Description: Binding affinity to Pseudomonas aeruginosa DNA. Type of series: nucleic-acid assay.
In series [28] the test system is Pseudomonas aeruginosa. Description: Induction of oxidative stress in Pseudomonas aeruginosa assessed as decrease in GSH activity at 0.5 to 8 times MIC by Ellman's assay. Type of series: functional, organism-based.
Series [29] has as its system Pseudomonas aeruginosa. Description: Antibacterial activity against Pseudomonas aeruginosa assessed as reduction in LDH activity at 0.5 to 8 times MIC. Type of series: functional, organism-based.
A short description of series [30]: Hemolytic activity in RBC (unknown origin) assessed as hemolysis. In kind it is toxicity, cell-based, Erythrocyte. The note with it: red blood cells (erythrocytes).
In series [31] the test system is Pseudomonas aeruginosa. Description: Induction of resistance development in Pseudomonas aeruginosa ATCC 27853 assessed as fold increase in MIC treated over 30 serial passages. Type of series: functional.
The test system of series [32] is Pseudomonas aeruginosa. Description: Induction of intracellular ROS accumulation in Pseudomonas aeruginosa assessed increase in fluorescence intensity. Type of series: functional, organism-based.
The nature of series [33]: Selectivity index, ratio of HC50 for hemolytic activity in RBC (unknown origin) assessed as hemolysis to MIC for antibacterial activity against Pseudomonas aeruginosa assessed as inhibition of bacterial growth by micro-broth dilution assay. Type of series: toxicity. The note with it: red blood cells (erythrocytes).
The subject of series [34] is Cell membrane. Description: Induction of outer membrane permeabilization in Pseudomonas aeruginosa assessed as increase in fluorescence intensity by NPN-dye based fluorescence analysis. Type of series: subcellular. The note with it: dose 0.5-8 µg/ml.
For series [35], the system named is Cell membrane. Description: Induction of cytoplasmic membrane depolarization in Pseudomonas aeruginosa assessed as increase in fluorescence intensity at 0.5 to 4 times MIC by DiSC35 dye based fluorescence analysis. Type of series: subcellular. The note with it: time 30.0 min, TDE = time-dependent effect.
For series [36], the system named is Cell membrane. Description: Induction of cell membrane damage in Pseudomonas aeruginosa assessed as increase in nucleic acid leakage at 0.5 to 8 times MIC. Type of series: subcellular.
Series [37] relates to Pseudomonas aeruginosa. Description: Antibacterial activity against Pseudomonas aeruginosa ATCC 27853 assessed as inhibition of bacterial growth at 1 times MIC measured upto 14 hrs. In kind it is functional, organism-based.
Series [38] has as its system Pseudomonas aeruginosa. Description: Induction of resistance development in Pseudomonas aeruginosa ATCC 27853 treated over 30 serial passages. In kind it is functional, organism-based.
In series [39] the test system is Acinetobacter baumannii. Description: Potency index, ratio of norfloxacin MIC to test compound MIC for antibacterial activity against Acinetobacter baumannii assessed as inhibition of bacterial growth by micro-broth dilution assay. Type of series: functional.

On to `CCn1cc(C(=O)O)c(=O)c2cc(F)c(N3CCNCC3)cc21` [NORFLOXACIN], for which the MIC in [1] was 4 µg/mL (≈ 12.5 µM); in [3], 4 µg/mL (≈ 12.5 µM); in [4], 8 µg/mL (≈ 25.1 µM); in series [6], 2 µg/mL (≈ 6.26 µM); in [7], 2 µg/mL (≈ 6.26 µM); in [8], 8 µg/mL (≈ 25.1 µM). Besides, the MIC in [9] was found to be 4 µg/mL (≈ 12.5 µM); in series [10] it was 2 µg/mL (≈ 6.26 µM); in series [11], 4 µg/mL (≈ 12.5 µM); in [12], 8 µg/mL (≈ 25.1 µM); in series [13] it was 2 µg/mL (≈ 6.26 µM). In addition, the result in series [2] and in series [5] was Active.

As to `Cn1ccnc1SCC(O)CN1C(=O)/C(=N\Nc2ccc(C(=O)O)cc2)c2ccccc21` (centres undefined), the outcome in [14], in [15], in series [17], in series [20], in series [26] and in [5] was Active. Besides, the result in [27], in [28], in [29], in series [36], in series [37] and in [38] was Active. The Activity result in [16] was “Dose-Dependent Effect”; in series [18], “Dose-Dependent Effect”; in series [19], “Dose-Dependent Effect”; in series [24], below 15%; in [32] it was “Dose-Dependent Effect”; in [34], “Dose-Dependent Effect”. Also, the Activity result in series [35] is “Tde”. The MIC in series [1] worked out at 4 µg/mL (≈ 8.86 µM); in [3], 32 µg/mL (≈ 70.9 µM); in series [4], 32 µg/mL (≈ 70.9 µM); in series [6], 4 µg/mL (≈ 8.86 µM); in series [7], 16 µg/mL (≈ 35.4 µM); in [8] it was 1 µg/mL (≈ 2.21 µM). Further, the MIC in series [9] amounted to 8 µg/mL (≈ 17.7 µM); in series [10], 2 µg/mL (≈ 4.43 µM); in series [11], 8 µg/mL (≈ 17.7 µM); in series [12] it was 8 µg/mL (≈ 17.7 µM); in series [13] it was 8 µg/mL (≈ 17.7 µM). For the same compound, in series [21], the “inhibition (INH)” value was 15%. Besides, the inhibition entry in series [22] and in series [23] was “Dose-Dependent Effect” each time. For the same compound, the Ratio in series [25] was determined as 8. Moreover, the HC50 in series [30] was above 512 µg/mL. The “fold change (FC)” value in series [31] worked out at 32. Moreover, in [33], the selectivity ratio was above 512.

Consider `Cn1nnnc1SCC(O)CN1C(=O)/C(=N\Nc2ccc(Cl)cc2)c2ccccc21` (centres undefined), for which the MIC is 64 µg/mL (≈ 144 µM) in series [1]; 1 µg/mL (≈ 2.25 µM) in series [3]; 16 µg/mL (≈ 36 µM) in series [4]; 4 µg/mL (≈ 9.01 µM) in series [6]; 256 µg/mL (≈ 577 µM) in series [7]; 16 µg/mL (≈ 36 µM) in [8]. Moreover, the MIC in [9] was determined as 32 µg/mL (≈ 72.1 µM); in [10], 2 µg/mL (≈ 4.51 µM); in series [11], 32 µg/mL (≈ 72.1 µM); in series [12], 16 µg/mL (≈ 36 µM); in [13] it was 32 µg/mL (≈ 72.1 µM). For the same compound, the HC50 in series [30] was above 512 µg/mL. For the same compound, the Ratio in [39] is recorded as 2.

For the compound `Cn1nnnc1SCC(O)CN1C(=O)/C(=N\Nc2ccccc2)c2ccccc21` (centres undefined), the MIC in series [1] came out at 32 µg/mL (≈ 78.1 µM); in [3], 2 µg/mL (≈ 4.88 µM); in series [4], 32 µg/mL (≈ 78.1 µM); in series [6] it was 16 µg/mL (≈ 39.1 µM); in [7], 128 µg/mL (≈ 313 µM); in [8], 16 µg/mL (≈ 39.1 µM). The MIC came to 32 µg/mL (≈ 78.1 µM) in series [9]; 2 µg/mL (≈ 4.88 µM) in series [10]; 128 µg/mL (≈ 313 µM) in series [11]; 16 µg/mL (≈ 39.1 µM) in [12]; 64 µg/mL (≈ 156 µM) in series [13]. Moreover, in series [30], the HC50 was found to be 406 µg/mL. In addition, the Ratio in series [39] worked out at 2.

`Cc1ccc(N/N=C2\C(=O)N(CC(O)CSc3nnnn3C)c3ccccc32)cc1` (centres undefined): the MIC in series [1] was determined as 8 µg/mL (≈ 18.9 µM); in series [3] it was 2 µg/mL (≈ 4.72 µM); in series [4] it was 32 µg/mL (≈ 75.6 µM); in [6] it was 64 µg/mL (≈ 151 µM); in [7], 16 µg/mL (≈ 37.8 µM); in series [8], 2 µg/mL (≈ 4.72 µM). Besides, the MIC was determined as 4 µg/mL (≈ 9.45 µM) in series [9]; 16 µg/mL (≈ 37.8 µM) in series [10]; 4 µg/mL (≈ 9.45 µM) in [11]; 8 µg/mL (≈ 18.9 µM) in series [12]; 2 µg/mL (≈ 4.72 µM) in [13]. Moreover, the HC50 in series [30] worked out at 383 µg/mL. Moreover, the Ratio in [39] stood at 2.
